From publication PMC9078697, “Discovery and preliminary SAR of 14-aryloxy-andrographolide derivatives as antibacterial agents with immunosuppressant activity” (RSC Advances, 2018)

Columns and labels:
Assay type in all cases: cell-based
[1] = tested on: IL-6/STAT3 signaling pathway; assay: IL-6/STAT3 luciferase reporter assay in AD-293 cells; conditions: Homo sapiens, AD293; AD-293 reporter cells; 2.5 μg mL−1 IL-6; treated for 16 h
Source text: (§1) We utilized luciferase reporters bearing the promoter regions of TNF-α/NF-κB, TLR4/NF-κB, and IL-6/STAT3 ([ref. 25]) to examine the activities of the antibacterial active andrographolide analogs in the regulation of signaling pathways that govern inflammatory response (Table 2). […] Like their similarity in inhibitory activity against E. faecalis, E. coli and S. aureus (Table 1), 3-keto-19-alcohol compound 9b1 suppresses three signaling pathways in the same fashion as 6b17 (Table 2). […] Cells from the AD-293 cell line, a derivative of the HEK293 cell line with improved adherence and plaque formation properties, were purchased from Stratagene (La Jolla, CA, USA). The protocols were adopted and modified from our previous report.[25] All compounds were dissolved in DMSO at 10 mM as a stock solution. The final concentration of DMSO was 0.1% in the culture medium. AD-293 cells bearing luciferase reporters with promoter regions of IL-6/STAT3 and TNF-α/NF-κB in pGL4.20 vector (Promega) were maintained in DMEM high glucose medium supplemented with 10% FBS and 1% penicillin streptomycin in the presence of 1 μg mL^−1 puromycin. AD-293 cells overexpressing TLR4 and stably transfected with NF-κB reporter were maintained in DMEM high glucose medium in the presence of 1 μg mL^−1 puromycin and 10 μg mL^−1 blasticidin. All cells were maintained in a humidified incubator at 37 °C in 95% air and 5% CO2. Reporter cells were treated with 50 ng mL^−1 TNF-α to stimulate the NF-κB signaling pathway, 1 μg mL^−1 LPS to stimulate the TLR4/NF-κB signaling pathway, and 2.5 μg mL^−1 IL-6 to stimulate the IL-6/STAT3 signaling pathway. The medium was removed at the end of the treatment, cell extracts were prepared, and the luciferase activity was measured using a Luciferase assay kit (Promega) according to the manufacturer's instructions. EC50 was defined as the concentration of drug that inhibited stimulator-triggered luciferase reporter activation by 50% after continuous drug exposure for 4 (TNF-α/NF-κB) or 16 (IL-6/STAT3 and TLR4/NF-κB) hours. Each concentration was repeated 3 times independently.

[2] = tested on: TLR4/NF-κB signaling pathway; assay: TLR4/NF-κB luciferase reporter assay in AD-293 cells; conditions: Homo sapiens, AD293; AD-293 reporter cells; 1 μg mL−1 LPS; treated for 16 h
Source text: as §1

[3] = tested on: TNF-α/NF-κB signaling pathway; assay: TNF-α/NF-κB luciferase reporter assay in AD-293 cells; conditions: Homo sapiens, AD293; AD-293 reporter cells; 50 ng mL−1 TNF-α; treated for 4 h
Source text: as §1

[4] = Cytotoxicity (MTT) in AD-293 cells; conditions: human, AD-293 cells (HEK293 derivative), treated for 24 h
E. coli = assay: Bacteriostatic screening (growth, OD630) against E. coli; conditions: for inhibition rate (%) EC: at 250 μM of the tested compound; for inhibition rate EC (symbol /): at 250 μM of tested compound
Method: (§2) The strategy in this study was to submit these synthesized compounds to a preliminary screening test against E. coli, S. aureus and E. faecalis (ciprofloxacin was used as a reference compound; see Table 1). […] The tested compound or ciprofloxacin (positive drug) was dissolved in DMSO and diluted with LB liquid medium into a stock solution containing 20% DMSO before use; the stock solution of the carrier was 20% DMSO in LB liquid medium. All the experiments, including blank controls, were performed in triplicate. Bacteriostatic screening was performed by applying a modified protocol of the National Committee on Clinical Laboratory Standards (NCCLS).[29] Briefly, E. coli, S. aureus and E. faecalis cells (American Type Culture Collection, ATCC) were grown in LB plate medium for one passage, then seeded in LB liquid medium and cultured at 37 °C for 12 h. After being diluted 1000 times, 190 μL diluted cells were aliquoted to 96-well plates; then, 10 μL stock solution of carrier or a gradient amount of the tested compound or the positive compound, ciprofloxacin, were added; the final concentration of DMSO was 1% in all wells. The blank controls contained 1% DMSO and LB medium but no bacterial cells.

S. aureus = assay: Bacteriostatic screening (growth, OD630) against S. aureus; conditions: for inhibition rate (%) SA: at 250 μM of the tested compound; for inhibition rate SA (symbol /): at 250 μM of tested compound
Method: as §2

E. faecalis = assay: Bacteriostatic screening (growth, OD630) against E. faecalis; conditions: for IC50: 24 h, IC50 generated when inhibition at 250 μM was higher than 80%; for inhibition rate (%) EF: at 250 μM of the tested compound
Method: as §2

Compound | inhibition rate (%) EC (E. coli) | inhibition rate (%) SA (S. aureus) | IC50 (E. faecalis) | inhibition rate (%) EF (E. faecalis) | inhibition rate EC (symbol /) (E. coli) | inhibition rate (%) SA (S. aureus; 250 µM) | also measured
C=C1CC[C@@H]2[C@](C)(CO)[C@H](O)CC[C@@]2(C)[C@@H]1C/C=C1/C(=O)OC[C@H]1O [compound 1, Andrographolide] |  |  |  |  |  |  | EC50 [1]: > 10 µM; EC50 [2]: > 10 µM; EC50 [3]: > 10 µM; CC50 at 24 h [4]: > 10 µM
C=C1CCC2C(C)(CO)C(O)CCC2(C)C1CC=C1C(=O)OCC1Oc1cccc(OC)c1 (stereo not drawn) [6b13, (14β)-(3′-Methoxy)phenoxy-andrographolide] | 15% | 13% | 138 ± 5.4 µM |  |  |  | 
C=C1CCC2C(C)(CO)C(O)CCC2(C)C1CC=C1C(=O)OCC1Oc1cccc2ccccc12 (stereo not drawn) [6b14, (14β)-(Naphthyl-1′-oxy)andrographolide] | (35) % | (18) % |  | (50) % |  |  | 
C=C1CCC2C3(C)COC(C)(C)OC3CCC2(C)C1CC=C1C(=O)OCC1Oc1ccccc1C(=O)OCC (stereo not drawn) [5a8, (14α)-(2′-Carboxyethyl ester)phenoxy-3,19-acetonylidene andrographolide] | (32) % | (20) % |  | (33) % |  |  | 
C=C1CCC2C(C)(CO)C(O)CCC2(C)C1CC=C1C(=O)OCC1Oc1ccccc1OC (stereo not drawn) [6a12, (14α)-(2′-Methoxy)phenoxy-andrographolide] |  |  | 75.6 ± 17.8 µM |  | / (“/”represents no inhibition or lower than 10% inhibition rate at 250 μM of tested compound) | (14) % | 
(14α)-(2′-Carboxy ethyl ester-4′-nitro)phenoxy-andrographolide [6a1] |  | (10) % | 72.2 ± 9.2 µM |  | / (“/”represents no inhibition or lower than 10% inhibition rate at 250 μM of tested compound) |  | 
C=C1CCC2C(C)(CO)C(O)CCC2(C)C1CC=C1C(=O)OCC1Oc1cccnc1[N+](=O)[O-] (stereo not drawn) [6a15, (14α)-(2′-Nitro-pyridinyl-3′-oxy)andrographolide] | (14) % |  | 56.7 ± 5.5 µM |  |  | (13) % | 
(14α)-(2′-Fluoro-4′-nitro)phenoxy-3,19-acetonylidene andrographolide [5a2] | (20) % | (20) % | 56.7 ± 6.5 µM |  |  |  | 
C=C1CCC2C(C)(CO)C(O)CCC2(C)C1CC=C1C(=O)OCC1Oc1ccc(C#N)cc1 (stereo not drawn) [6b10, (14β)-(4′-Cyano)phenoxy-andrographolide] | (39) % | (29) % | 72.1 ± 9.4 µM |  |  |  | 
C=C1CCC2C3(C)COC(C)(C)OC3CCC2(C)C1CC=C1C(=O)OCC1Oc1ccc([N+](=O)[O-])cc1C(=O)OC (stereo not drawn) [5a1, (14α)-(2′-Carboxymethyl ester-4′-nitro)phenoxy-3,19-acetonylidene andrographolide] |  |  | 51.2 ± 11.6 µM |  | / (“/”represents no inhibition or lower than 10% inhibition rate at 250 μM of tested compound) | (14) % | 
C=C1CCC2C3(C)COC(C)(C)OC3CCC2(C)C1CC=C1C(=O)OCC1Oc1ccc([N+](=O)[O-])c(OC)c1 (stereo not drawn) [5b5, (14β)-(3′-Methoxy-4′-nitro)phenoxy-3,19-acetonylidene andrographolide] |  |  |  |  |  | (32) % | inhibition rate (%) EC (E. coli; 250 µM): (18) %; inhibition rate (%) EF (E. faecalis; 250 µM): (34) %
(14β)-(2′-Carboxy ethyl ester)phenoxy-3,19-acetonylidene andrographolide [5b8] |  |  |  | (22) % | / (“/”represents no inhibition or lower than 10% inhibition rate at 250 μM of tested compound) |  | inhibition rate SA (symbol /) (S. aureus): / (“/”represents no inhibition or lower than 10% inhibition rate at 250 μM of tested compound)
C=C1CCC2C(C)(CO)C(O)CCC2(C)C1CC=C1C(=O)OCC1Oc1cccnc1[N+](=O)[O-] (stereo not drawn) [6b15, (14β)-(2′-Nitro-pyridinyl-3′-oxy)andrographolide] | (14) % |  | 29.3 ± 2.1 µM |  |  | (41) % | 
C=C1CCC2C(C)(CO)C(O)CCC2(C)C1CC=C1C(=O)OCC1Oc1ccnc2ccccc12 (stereo not drawn) [6b16, (14β)-(Quinolyl-4′-oxy)andrographolide] |  |  | 58.5 ± 4.2 µM |  | / (“/”represents no inhibition or lower than 10% inhibition rate at 250 μM of tested compound) |  | inhibition rate SA (symbol /) (S. aureus): / (“/”represents no inhibition or lower than 10% inhibition rate at 250 μM of tested compound)
C=C1CCC2C3(C)COC(C)(C)OC3CCC2(C)C1CC=C1C(=O)OCC1Oc1ccc(OC)cc1 (stereo not drawn) [5b11, (14β)-(4′-Methoxy)phenoxy-3,19-acetonylidene andrographolide] |  |  |  | (39) % | / (“/”represents no inhibition or lower than 10% inhibition rate at 250 μM of tested compound) |  | inhibition rate SA (symbol /) (S. aureus): / (“/”represents no inhibition or lower than 10% inhibition rate at 250 μM of tested compound)
(14β)-(4′-Carboxy ethyl ester)phenoxy-3,19-acetonylidene andrographolide [5b9] |  | (15) % |  | (42) % | / (“/”represents no inhibition or lower than 10% inhibition rate at 250 μM of tested compound) |  | 
C=C1CCC2C(C)(CO)C(O)CCC2(C)C1CC=C1C(=O)OCC1Oc1ccccc1OC (stereo not drawn) [6b12, (14β)-(2′-Methoxy)phenoxy-andrographolide] | (12) % |  | 20.8 ± 4.5 µM |  |  | (13) % | 
C=C1CCC2C(C)(CO)C(O)CCC2(C)C1CC=C1C(=O)OCC1Oc1ccnc2ccccc12 (stereo not drawn) [6a16, (14α)-(Quinolyl-4′-oxy)andrographolide] |  | (22) % | 65.8 ± 13.5 µM |  | / (“/”represents no inhibition or lower than 10% inhibition rate at 250 μM of tested compound) |  | 
C=C1CCC2C(C)(CO)C(O)CCC2(C)C1CC=C1C(=O)OCC1Oc1ccc([N+](=O)[O-])cc1F (stereo not drawn) [6a2, (14α)-(2′-Fluoro-4′-nitro)phenoxy-andrographolide] |  |  | 38.7 ± 4.5 µM |  |  | (65) % | inhibition rate (%) EC (E. coli; 250 µM): (67) %
(14β)-(3′-Fluoro-4′-nitro)phenoxy-3,19-acetonylidene andrographolide [5b4] | (19) % | (15) % |  | (73) % |  |  | 
(14β)-(2′-Nitro)phenoxy-3,19-acetonylidene andrographolide [5b6] |  |  |  | 43% | / (“/”represents no inhibition or lower than 10% inhibition rate at 250 μM of tested compound) |  | inhibition rate SA (symbol /) (S. aureus): / (“/”represents no inhibition or lower than 10% inhibition rate at 250 μM of tested compound)
